Assay [1] deals with human GluR1B receptor. The experiment in a line: AMPA-binding assay with membranes of transfected COS-1 cells. As to conditions: 10 nM [3H]-AMPA; membrane preparations from human GluR1B receptor-producing COS cells; non-specific binding with 1 mM L-glutamate; FIG. 3. As to the method: (§1) Transfected cells in the frozen state were resuspended in ice-cold distilled water using a hand homogenizer, sonicated for 5 seconds, and then centrifuged for 20 minutes at 50,000 g. The supernatant was discarded and the membrane pellet stored frozen at −70° C.
(§2) COS cell membrane pellets were suspended in ice cold 5 mM Tris-HCI (pH 7.55, 5C) and centrifuged again at 50,000 g for 10 minutes in order to remove endogenous glutamate that would compete for binding. Pellets were resuspended in ice cold 50 mM Tris-HCl (pH 7.55) buffer and the resultant membrane preparation was used as tissue source for binding experiments described below. Proteins were determined using the Pierce Reagent with BSA as standard.
Binding assays were then performed, using an amount of COS-derived membrane equivalent to from 25-100 ug as judged by protein determination and selected radiolabelled ligand. In particular, for AMPA-binding assays, incubation mixtures consisted of 25-100 ug tissue protein and D,L-alpha-[5-methyl-3H]amino-3-hydroxy-5-methylisoxazole-4-propionic acid (3H-AMPA, 27.6Ci/mmole, 10 nM final) with 0.1 M KSCN and 2.5 mM CaCl2 in the 1 ml final volume. Non-specific binding was determined in the presence of 1 mM L-glutamate. […] Pellets were washed twice in 4 ml of the cold incubation buffer, then 5 ml of Beckman Ready-Protein Plus scintillation cocktail was added, for counting.

Assay [2] deals with human GluR1B receptor. Kind of assay: NMDA binding to membranes of transfected COS-1 cells. As to conditions: membrane preparations from human GluR1B receptor-producing COS cells. As to the method: as §1, §2
In assay [3] the test system is human GluR1B receptor. The experiment in a line: kainate-binding assay with membranes of transfected COS-1 cells. As to conditions: [vinylidene-3H] kainic acid 5 nM; membrane preparations from human GluR1B receptor-producing COS cells. The method, then: as §1, §2
For kainate-binding assays, incubation mixtures consisted of 25-100 ug tissue protein and [vinylidene-3H] kainic acid (58Ci/mmole, 5 nM final) in the cold incubation buffer, 1 ml final volume. Non-specific binding was determined in the presence of 1 mM L-glutamate. Samples were incubated as for the AMPA-binding assays, and bound and free ligand were separated by rapid filtration using a Brandel cell harvester and GF/B filters pre-soaked in ice-cold 0.3% polyethyleneimine. Filters were washed twice in 6 ml of the cold incubation buffer, then placed in scintillation vials with 5 ml of Beckman Ready-Protein Plus scintillation cocktail for counting.

The structures appear in SMILES notation.

Consider `[3H]Cc1onc(O)c1CC(N)C(=O)O` (racemic) [[3H]-AMPA, D,L-alpha-[5-methyl-3H]amino-3-hydroxy-5-methylisoxazole-4-propionic acid], for which the specific binding in the assay with human GluR1B receptor [1] is recorded as 100-150 fmole/mg protein.
In the case of `CN[C@H](CC(=O)O)C(=O)O` [NMDA, N-methyl-D-aspartate], in the assay with human GluR1B receptor [2], the “binding of NMDA” value is on record as “little or no demonstrable binding”.
For the molecule `C=C(C)[C@H]1CN[C@H](C(=O)O)[C@H]1CC(=O)O` [kainate, [vinylidene-3H] kainic acid], in the assay on human GluR1B receptor [3], the binding of kainate entry was “little or no demonstrable binding”.

(Values after patent US6406868B1, “AMPA-binding human GluR1 receptors” (priority 1992, dated 2002).)
